System: skin
Assay: 21-Day Cumulative Irritation Test
Format: in vivo, human
Experimental: Each of the formulations of Examples 1-11 was evaluated for its tendency to cause skin erythema using the 21-Day Cumulative Irritation Test. In this test, 0.2 g of undiluted deodorant is applied daily for 21 days (excluding weekends) to the same 2-cm square patch of skin, which is occluded between applications. Each weekday during the test period, trained personnel grade the portion of skin where the test material is applied for signs of irritation and reapply the test material. Subjects fulfill specific inclusion criteria including not pregnant or breast feeding, over 18 years old, and without medical conditions which would interfere with the test. The grading system used is as follows:
0.5 Papular or papulovesicular response and/or dryness without erythema […]
The total score is calculated by summing each individual's score on the 21 days of the test. […] The normalized score is the total score divided by the total number of readings for all subjects and multiplied by 21 (the number of readings) and by 10 (to normalize to 10 subjects). Normalized scores are analyzed using ANOVA (analysis of variance technique described in Duncan, A. J., “Analysis of Variance”, Quality Control and Industrial Statistics (Irwin Publishers, Homewood, Ill. 1986) including the effects of subject and product. Product comparisons are made at the 5% level based on Fisher's least significant differences. […]

## CCCCCCCCCCCCOS(=O)(=O)[O-].[Na+] [Sodium Lauryl Sulfate]
0.2 g undiluted product applied daily for 21 days to same occluded 2-cm square skin patch, total score normalized to 21 readings and 10 subjects
  Normalized Score: 431.8
Classification of the normalized score, 21-Day Cumulative Irritation Test
  Irritation Classification: Moderate
